Measurements: ChEMBL document CHEMBL3259753, “Synthesis, structure-activity relationships and biological evaluation of dehydroandrographolide and andrographolide derivatives as novel anti-hepatitis B virus agents” (Bioorg Med Chem Lett, 2014)

Legend:
[1] = Cytotoxicity against human HepG2.2.15 cells by MTT assay; format: cell-based, HepG2 2.2.15
[2] = system: Hepatitis B virus; test: Antiviral activity against HBV infected in human HepG2.2.15 cells assessed as inhibition of hepatitis B e antigen secretion by ELISA; format: functional, organism-based; conditions: HepG2 2.2.15
[3] = Selectivity index, ratio of CC50 for human HepG2.2.15 cells to IC50 for HBV infected in human HepG2.2.15 cells assessed as inhibition of DNA replication; format: functional
[4] = system: Hepatitis B virus; test: Antiviral activity against HBV infected in human HepG2.2.15 cells assessed as inhibition of hepatitis B surface antigen secretion by ELISA; format: functional, organism-based; conditions: HepG2 2.2.15
[5] = system: Hepatitis B virus; test: Antiviral activity against HBV infected in human HepG2.2.15 cells assessed as inhibition of DNA replication; format: functional, organism-based; conditions: HepG2 2.2.15
[6] = Selectivity index, ratio of CC50 for human HepG2.2.15 cells to IC50 for HBV infected in human HepG2.2.15 cells assessed as inhibition of hepatitis B e antigen secretion; format: functional
[7] = Selectivity index, ratio of CC50 for human HepG2.2.15 cells to IC50 for HBV infected in human HepG2.2.15 cells assessed as inhibition of hepatitis B surface antigen secretion; format: functional

SMILES | CC50 [1] [µM] | IC50 [2] [µM] | Ratio CC50/IC50 [3] | IC50 [4] [µM] | IC50 [5] [µM] | Ratio CC50/IC50 [6] | Ratio CC50/IC50 [7]
C=C1CC[C@@H]2[C@](C)(COC(=O)CCCC)[C@H](O)CC[C@@]2(C)[C@@H]1C/C=C1\C=COC1=O | 225 | 2230 | 3.2 | 565 | 69.5 | – | –
C=C1CC[C@@H]2[C@](C)(COC(=O)c3ccccc3C(=O)O)[C@H](O)CC[C@@]2(C)[C@@H]1C/C=C1\C=COC1=O | 450 | 293 | 11.4 | 1320 | 39.4 | 1.5 | –
C=C1CC[C@@H]2[C@](C)(CO)[C@H](OC(=O)/C=C/c3ccccc3)CC[C@@]2(C)[C@@H]1C/C=C1\C=COC1=O | 179 | 1170 | 5.8 | 466 | 30.7 | – | –
C=C1CC[C@@H]2[C@](C)(CO)[C@H](OC(=O)/C=C/c3cc(OC)c(OC)c(OC)c3)CC[C@@]2(C)[C@@H]1C/C=C1\C=COC1=O | 211 | 518 | 3 | 753 | 53.1 | – | –
C=C1CC[C@@H]2[C@](C)(CO)[C@H](OC(=O)c3cccnc3)CC[C@@]2(C)[C@@H]1C/C=C1\C=COC1=O | 337 | 714 | 8.8 | 261 | 38.4 | – | 1.3
C=C1CC[C@@H]2[C@](C)(CO)[C@H](OC(=O)c3ccco3)CC[C@@]2(C)[C@@H]1C/C=C1\C=COC1=O | 42 | 586 | 1.7 | 777 | 25.2 | – | –
C=C1CC[C@@H]2[C@](C)(CO)[C@H](OC(=O)c3cccs3)CC[C@@]2(C)[C@@H]1C/C=C1\C=COC1=O | 257 | > 2200 | 31.8 | 41 | 8.1 | – | 6.2
C=C1CC[C@@H]2[C@](C)(CO)[C@H](OC(=O)c3ccccc3)CC[C@@]2(C)[C@@H]1C/C=C1\C=COC1=O | 103 | 118 | 4.8 | 877 | 21.6 | – | –
C=C1CC[C@@H]2[C@](C)(CO)[C@H](OC(=O)CCCC)CC[C@@]2(C)[C@@H]1C/C=C1\C=COC1=O | 126 | 208 | 1.82 | 625 | 69.8 | – | –
C=C1CC[C@@H]2[C@](C)(COC(=O)/C=C/c3cc(OC)c(OC)c(OC)c3)[C@H](OC(=O)/C=C/c3cc(OC)c(OC)c(OC)c3)CC[C@@]2(C)[C@@H]1C/C=C1\C=COC1=O | > 1830 | > 253 | – | > 1830 | > 458 | – | –
C=C1CC[C@@H]2[C@](C)(COC(=O)c3cccs3)[C@H](OC(=O)c3cccs3)CC[C@@]2(C)[C@@H]1C/C=C1\C=COC1=O | 1370 | 1220 | – | 1640 | – | 1.1 | –
C=C1CC[C@@H]2[C@](C)(COC(=O)CCCC)[C@H](OC(=O)CCCC)CC[C@@]2(C)[C@@H]1C/C=C1\C=COC1=O | 757 | 1390 | – | 1010 | 455 | – | –
C=C1CC[C@@H]2[C@](C)(COC(=O)CCC(=O)O)[C@H](OC(=O)CCC(=O)O)CC[C@@]2(C)[C@@H]1C/C=C1\C=COC1=O | 32 | 243 | – | 1160 | 47.6 | – | –
C=C1CC[C@@H]2[C@](C)(COC(=O)c3ccccc3C(=O)O)[C@H](OC(=O)c3ccccc3C(=O)O)CC[C@@]2(C)[C@@H]1C/C=C1\C=COC1=O | > 2040 | 218 | >92.8 | – | 22 | >9.4 | –
C=C1CC[C@H]2[C@@](C)(CCC(=O)[C@@]2(C)C=O)[C@@H]1/C=C/C1=CCOC1=O | 275 | – | 1.1 | 394 | 263 | – | –
C=C1CC[C@@H]2[C@](C)(C=O)[C@H](O)CC[C@@]2(C)[C@@H]1/C=C/C1=CCOC1=O | 122 | 1950 | 9.1 | 1840 | 13.4 | – | –
C=C1CC[C@H]2[C@@](C)(CCC(=O)[C@@]2(C)C=O)[C@@H]1C/C=C1\C=COC1=O | 964 | – | 5.7 | 518 | 169 | – | 1.9
C=C1CC[C@@H]2[C@](C)(CO)[C@H](O)CC[C@@]2(C)[C@@H]1/C=C/C1=CC(C(C)(C)O)OC1=O (some centres not stated) | 122 | 562 | – | – | 394 | – | –
C[C@H](Cn1cnc2c(N)ncnc21)OCP(=O)(O)O [TENOFOVIR ANHYDROUS] | > 1720 | – | >2417.3 | 1390 | 0.71 | >1.4 | >1.2
